What was measured:
[1] = system: Split3WJ.1_up_5IB+Split3WJ.1_down_3FAM (trans 3WJ as 1:1 mix); test: Fluorescence quenching binding assay (FAM / Iowa Black); conditions: two concentration points
Procedure: (§1) This assay will be used to test binding of compounds for RNA three way junction (such as a 38 nt construct). This is a fluorescence quenching assay utilizing FAM as fluorescence tag and Iowa Black as quencher. Tags are attached at the 3′ and 5′ end, respectively. Stable formation of MW upon compound binding would lead to quenching of the FAM fluorescence due to close proximity of the Iowa Black tag. Assay readout: FAM (485-520 nm) Fluorescence Intensity.
(§2) Assay sample buffer used: 10 mM CacoK pH 7.2, 30 mM NaCl. Buffer preparation in Dnase/Rnase Free distilled water (Gibco Life Technologies).
(§3) Dilute the RNA 1:10 (final 10 μM) in Assay Buffer.
(§4) Heat up the diluted RNA up to 90° C. for 5 min (sealed Eppendorf Tube).
(§5) Cool down the RNA probe slowly to RT.
(§6) Dilute the compounds to 800 μM in DMSO (Assay: 8 μM).
(§7) Final concentrations in the sample: 1-10 μM RNA, 8 μM compound, 1% DMSO
(§8) Pipet 25 μL Sample Solution into Greiner cat #784076, black, 384
(§9) Measure the 96 plate with the LightCycler480 (Channel: 485/520 nm).
(§10) The fluorescence quenching experiment was repeated for compounds Ark0000013 and Ark0000014 to measure binding with:
B) Split3WJ.1_up_5IB+Split3WJ.1_down_3FAM (trans 3WJ as 1:1 mix)
(§11) Both cmpds were tested at two concentration points in the fluorescence quenching assays to assess effect upon RNA constructs utilized in the study. […]

[2] = system: RNA3WJ_1.0.0_5IB_3FAM (cis 3WJ with one unpaired nucleotide); test: as above; conditions: two concentration points
Procedure: as §1, §2, §3, §4, §5, §6, §7, §8, §9, §10
A) RNA3WJ_1.0.0_5IB_3FAM (cis 3WJ with one unpaired nucleotide)
as §11

[3] = system: Split3WJ.2 up_5IB+Split3WJ.2_down_3FAM (trans 3WJ as 1:1 mix); test: as above; conditions: two concentration points
Procedure: as §1, §2, §3, §4, §5, §6, §7, §8, §9, §10
C) Split3WJ.2 up_5IB+Split3WJ.2_down_3FAM (trans 3WJ as 1:1 mix)
as §11

[4] = system: RNA3WJ_0.0.0_5B_3FAM (3WJ RNA); test: Ligand observed NMR binding assay (Watergate, WaterLOGSY, STD); conditions: 10 μM RNA, +/− 200 Ark000013
Procedure: Purpose: Test direct binding of compounds for RNA three way junction (3WJ). This ligand observed NMR assay is used to test direct binding of compounds to an RNA target, for example a 38 nt synthetic RNA 3WJ and others as described below. Ligand observed assay was used for hit validation studies of single compounds. Established experiments were eventually used to perform group epitope mapping, described below.
Sample buffer: 10 mM Cacodylate, pH 7.1; 0.68 g [MW: 137.99 g/mol]; fill up to 500 ml with Millipore H2O.
Compound Stocks: Tool compounds provided as dry powder were prepared as 50 mM stock solution in 100% d6-DMSO. Test compounds provided as dry powder were prepared as 50 mM stock solution in 100% d6-DMSO. Stock solutions of 50 mM concentration in d6-DMSO were stored at 4° C.
NMR spectrometer: Bruker AVANCE600 spectrometer operating at 600.0 MHz for ^1H. 5-mm z-gradient TXI Cryoprobe.
Dried RNA pellet is solubilized in sample buffer 10 mM Cacodylate pH 7.1. […]
Spectra were analyzed for direct binding signals of the compounds. […]
ARK0000013 was also tested in the NMR binding assay. Test Sample: 10 μM RNA3WJ_0.0.0_5B_3FAM+/−200 Ark000013. ^1H 1D Watergate & WaterLOGSY spectra recorded of Ark000013 were used as a reference (Note: aromatic signals observed between 7.4-7.9 ppm and due to symmetry of the center triptycene scaffold all 9 protons are magnetically equivalent).

## CN(CCCN)CCCNC(=O)c1ccc2c(c1)C1c3cc(C(=O)NCCCN(C)CCCN)ccc3C2c2ccc(C(=O)NCCCN(C)CCCN)cc21 [Ark000013, N^2,N^7,N^15-tris(3-((3-aminopropyl)(methyl)amino)propyl)-9,10-dihydro-9,10-[1,2]benzenoanthracene-2,7,15-tricarboxamide]
[1]
  fluorescence quenching effect (FAM fluorescence signal): significant concentration dependent effect
[2]
  fluorescence quenching effect (FAM fluorescence signal): significant concentration dependent effect
[3]
  fluorescence quenching effect (FAM fluorescence signal): significant concentration dependent effect
[4]
  STD signals: small signals
  WaterLOGSY signals in the presence of RNA: clear reduction of negative sign signals
